Test results reported in patent US20140315876A1, “BETA-LACTAMASE INHIBITORS” (priority 2013, published 2014).
Structures can show the parent of a compound that is named as a salt.

Legend:
[1] = test system: bacterial strains that express KPC β-lactamases; assay: Synergy MIC / standard BLI potentiation MIC assay, strains expressing KPC β-lactamases; format: cell-based; details: more active for at least one KPC strain and/or better spectrum of activity than Avibactam; in the presence of a β-lactam
Method: (§1) The experimental protocol was performed according to Clinical and Laboratory Standards Institute (CLSI) guidelines with modifications as described below (CLSI guidelines can be derived from the CLSI document M07-A9 published in January 2012: “Methods for Dilution Antimicrobial Susceptibility Tests for Bacteria That Grow Aerobically; Approved Standard-Ninth Edition”).
(§2) To prepare for MIC testing, frozen glycerol stocks of clinical isolates (Klebsiella pneumoniae, Eschericia coli, Enterobacter spp, Citrobacter spp, or Pseudomonas aeruginosa) were used to streak for isolated colonies on rich, non-selective, tryptic soy agar containing 5% sheep's blood (TSAB). Frozen glycerol stocks of laboratory engineered, isogenic E. coli strains, which contain cloned β-lactamase expressing plasmids were used to streak for isolated colonies on rich, selective LB agar supplemented with 25 μg/mL tetracycline to maintain the plasmid. All strains were incubated at 37° C. for 18-24 hrs.
(§3) On the day of testing, primary cultures were started by scraping off 5-10 colonies from the TSAB plates containing clinical strains or the tetracycline supplemented LB plates containing engineered strains. The clinical strain material was suspended in ˜5 mL of cation adjusted Mueller Hinton Broth (CAMHB) in 14 mL culture tubes. The engineered strain material was suspended in CAMHB (supplemented with 25 μg/mL tetracycline) in 14 mL culture tubes. All strains were incubated at 37° C. with aeration (200 rpm) for ˜2 hrs until the optical density at 600 nm (OD600) was ≧0.1.
(§4) The two compound components of the assay were each diluted in CAMHB and added to the 96-well broth microdilution assay plates. 50 μL of the β-lactam was added to each well of the assay plate in 2-fold dilutions with final concentrations ranging from 128 to 0.13 μg/mL. 25 μL of the BLI compound was added to all wells in the broth microdilution plates at a final concentration of 4 μg/mL. Inoculum cultures were prepared by standardizing the primary cultures to OD600=0.1 and then adding 20 μL of the adjusted primary culture per 1 mL CAMHB for clinical strains or CAMHB (supplemented with tetracycline at 100 μg/mL) for engineered strains, so that the final inoculum density was ˜10^5 colony forming units per milliliter. Diluted inoculum cultures were used to inoculate 25 μL per well in 96-well broth microdilution assay plates. The final volume of each well was 100 μL and contained a β-lactam at different concentrations, a BLI compound at 4 μg/mL concentration, the bacterial culture at an OD600 of approximately 0.001 and when necessary tetracycline at 25 μg/mL.
(§5) Plates were incubated for 18-20 hours at 37° C. with aeration (200 rpm). Following incubation, growth was confirmed visually placing plates over a viewing apparatus (stand with a mirror underneath) and then OD600 was measured using a SpectraMax 340PC384 plate reader (Molecular Devices, Sunnyvale, Calif.). Growth was defined as turbidity that could be detected with the naked eye or achieving minimum OD600 of 0.1. MIC values were defined as the lowest concentration producing no visible turbidity.
(§6) The synergy MIC (sMIC) assay determines the concentration of the BLI required to potentiate the activity of a fixed concentration of a β-lactam antibiotic against β-lactamase producing bacterial strains. The experimental protocol was performed according to Clinical and Laboratory Standards Institute (CLSI) guidelines with modifications as described below (CLSI guidelines can be derived from the CLSI document M07-A9 published in January 2012: “Methods for Dilution Antimicrobial Susceptibility Tests for Bacteria That Grow Aerobically; Approved Standard-Ninth Edition”). […]

[2] = test system: bacterial strains that express the class D cephalosporinase OXA-15; assay: Synergy MIC / standard BLI potentiation MIC assay, strains expressing OXA-15; format: cell-based, E. coli; details: in the presence of a β-lactam; comparator Avibactam (comparator compound CCC)
Method: as §1, §2, §3, §4, §5, §6

SMILES	activity and/or spectrum of activity against bacterial strains that express KPC β-lactamases, compared with Avibactam [1]	activity against bacterial strains that express the class D cephalosporinase OXA-15, compared with Avibactam [2]
N=C(N)NCCc1nnc([C@@H]2CC[C@@H]3CN2C(=O)N3OS(=O)(=O)O)o1 [Compound 705, (2S,5R)-2-(5-(2-guanidinoethyl)-1,3,4-oxadiazol-2-yl)-7-oxo-1,6-diazabicyclo[3.2.1]octan-6-yl hydrogen sulfate]	more active than Avibactam	more active than Avibactam
O=C1N2C[C@@H](CC[C@H]2c2nnc(CCCCNC3CCNCC3)o2)N1OS(=O)(=O)O [Compound 772, (2S,5R)-7-oxo-2-(5-(4-(piperidin-4-ylamino)butyl)-1,3,4-oxadiazol-2-yl)-1,6-diazabicyclo[3.2.1]octan-6-yl hydrogen sulfate]	more active than Avibactam	more active than Avibactam
N=C(N)N1CC(Cc2nnc([C@@H]3CC[C@@H]4CN3C(=O)N4OS(=O)(=O)O)o2)C1 [Compound 741, (2S,5R)-2-(5-((1-carbamimidoylazetidin-3-yl)methyl)-1,3,4-oxadiazol-2-yl)-7-oxo-1,6-diazabicyclo[3.2.1]octan-6-yl hydrogen sulfate]	more active than Avibactam	more active than Avibactam
N[C@H]1C[C@@H](NCc2nnc([C@@H]3CC[C@@H]4CN3C(=O)N4OS(=O)(=O)O)o2)C1 [Compound 756, (2S,5R)-2-(5-((((1s,3R)-3-aminocyclobutyl)amino)methyl)-1,3,4-oxadiazol-2-yl)-7-oxo-1,6-diazabicyclo[3.2.1]octan-6-yl hydrogen sulfate]	more active than Avibactam	more active than Avibactam
O=C1N2C[C@@H](CC[C@H]2c2nnc(COC3CNC3)o2)N1OS(=O)(=O)O [Compound 744, (2S,5R)-2-(5-((azetidin-3-yloxy)methyl)-1,3,4-oxadiazol-2-yl)-7-oxo-1,6-diazabicyclo[3.2.1]octan-6-yl hydrogen sulfate]	more active than Avibactam	more active than Avibactam
N[C@H]1C[C@@H](c2nnc([C@@H]3CC[C@@H]4CN3C(=O)N4OS(=O)(=O)O)s2)C1 [Compound 795, (2S,5R)-2-(5-((1s,3R)-3-aminocyclobutyl)-1,3,4-thiadiazol-2-yl)-7-oxo-1,6-diazabicyclo[3.2.1]octan-6-yl hydrogen sulfate]	more active than Avibactam	more active than Avibactam
O=C1N2C[C@@H](CC[C@H]2c2nnc(CN3CCNCC3)o2)N1OS(=O)(=O)O [Compound 777, (2S,5R)-7-oxo-2-(5-(piperazin-1-ylmethyl)-1,3,4-oxadiazol-2-yl)-1,6-diazabicyclo[3.2.1]octan-6-yl hydrogen sulfate]	more active than Avibactam	more active than Avibactam
N=C(N)Nc1nnc([C@@H]2CC[C@@H]3CN2C(=O)N3OS(=O)(=O)O)o1 [Compound 738, (2S,5R)-2-(5-guanidino-1,3,4-oxadiazol-2-yl)-7-oxo-1,6-diazabicyclo[3.2.1]octan-6-yl hydrogen sulfate]	more active than Avibactam	more active than Avibactam
